# Measured values as given in publication PMC4579270, “Identification and Characterization of an Irreversible Inhibitor of CDK2” (Chemistry & Biology, 2015).
# Where two headings read alike, the source gives them in different places.
# Legend:
# ASK1 = target: T1, ASK1 (Homo sapiens, UniProt Q99683); assay: Dundee kinase screen re-test (standard format and 4 hour pre-incubation); format: biochemical; conditions: ASK1, 0.5µM
# T1 sequence (Q99683 1-1374): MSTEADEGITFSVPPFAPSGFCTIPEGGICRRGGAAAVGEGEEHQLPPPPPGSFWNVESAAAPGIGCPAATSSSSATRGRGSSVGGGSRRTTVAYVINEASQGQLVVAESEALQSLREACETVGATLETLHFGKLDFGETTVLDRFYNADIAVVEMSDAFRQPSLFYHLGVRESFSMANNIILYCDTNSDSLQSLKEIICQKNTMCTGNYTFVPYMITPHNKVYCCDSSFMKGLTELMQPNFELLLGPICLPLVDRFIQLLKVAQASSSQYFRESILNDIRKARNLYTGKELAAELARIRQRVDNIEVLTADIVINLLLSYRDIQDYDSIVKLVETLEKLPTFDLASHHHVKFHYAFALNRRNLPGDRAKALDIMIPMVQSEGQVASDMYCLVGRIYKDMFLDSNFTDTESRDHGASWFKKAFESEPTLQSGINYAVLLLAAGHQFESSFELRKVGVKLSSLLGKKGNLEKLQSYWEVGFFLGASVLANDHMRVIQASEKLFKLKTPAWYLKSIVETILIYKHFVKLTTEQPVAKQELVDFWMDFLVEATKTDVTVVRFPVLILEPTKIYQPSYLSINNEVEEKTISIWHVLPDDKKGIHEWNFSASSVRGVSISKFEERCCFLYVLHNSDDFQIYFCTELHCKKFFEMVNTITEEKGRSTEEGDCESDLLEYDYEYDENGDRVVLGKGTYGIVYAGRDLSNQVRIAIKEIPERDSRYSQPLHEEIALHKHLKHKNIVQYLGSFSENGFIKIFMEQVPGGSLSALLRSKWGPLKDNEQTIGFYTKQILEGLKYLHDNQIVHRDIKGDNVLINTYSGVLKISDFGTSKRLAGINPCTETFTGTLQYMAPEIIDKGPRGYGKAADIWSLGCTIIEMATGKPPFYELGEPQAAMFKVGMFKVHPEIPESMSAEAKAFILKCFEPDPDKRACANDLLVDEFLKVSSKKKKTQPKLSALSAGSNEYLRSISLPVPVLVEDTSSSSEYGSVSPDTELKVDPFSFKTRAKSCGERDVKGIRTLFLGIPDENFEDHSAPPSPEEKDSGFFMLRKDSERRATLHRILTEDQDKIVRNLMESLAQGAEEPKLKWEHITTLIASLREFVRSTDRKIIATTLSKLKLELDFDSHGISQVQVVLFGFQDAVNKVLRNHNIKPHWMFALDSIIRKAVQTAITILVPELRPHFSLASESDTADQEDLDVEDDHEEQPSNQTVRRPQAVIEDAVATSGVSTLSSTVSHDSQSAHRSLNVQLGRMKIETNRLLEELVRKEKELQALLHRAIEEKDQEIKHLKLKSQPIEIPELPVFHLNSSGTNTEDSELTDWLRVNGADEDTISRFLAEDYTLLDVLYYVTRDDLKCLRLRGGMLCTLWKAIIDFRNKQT
# Protocol: (§1) Prior to determining its cellular activity, we carried out a screen to assess its selectivity against a panel of 131 protein kinases under conditions that would not distinguish between a reversible or irreversible mode of action. […] These 13 kinases and 29 additional kinases, selected for their known sensitivity to other inhibitors within the purine series, were then tested in a modified screening format in which the assay was repeated following a 4-hr pre-incubation (Table S3B). […] However, conformational flexibility around the active site may promote such an interaction with a residue from another part of the structure ([Martin et al., 2012]).
# (§2) Table S3, Related to Figure 4. NCL-0006300 protein kinase selectivity. […]
# (§3) Dundee protein kinase screen (Bain et al., 2007). […]
# (§4) (B) Selected kinases were re-tested in the Dundee kinase screen against NU6300 at a single concentration of 0.5 µM both in the standard assay format and following a 4 hour pre-incubation in the presence of NU6300. Kinases which have very low activity after the 4 hour incubation so that results might not be wholly reliable are boxed in salmon. Kinases where the activity after a 4 hour pre-incubation is < 50% that in the standard assay format are highlighted in red.
# EPH-B3 = target: T2, EPH-B3 (Homo sapiens, UniProt P54753); assay: as above; format: biochemical; conditions: EPH-B3, 0.5µM
# T2 sequence (P54753 34-998): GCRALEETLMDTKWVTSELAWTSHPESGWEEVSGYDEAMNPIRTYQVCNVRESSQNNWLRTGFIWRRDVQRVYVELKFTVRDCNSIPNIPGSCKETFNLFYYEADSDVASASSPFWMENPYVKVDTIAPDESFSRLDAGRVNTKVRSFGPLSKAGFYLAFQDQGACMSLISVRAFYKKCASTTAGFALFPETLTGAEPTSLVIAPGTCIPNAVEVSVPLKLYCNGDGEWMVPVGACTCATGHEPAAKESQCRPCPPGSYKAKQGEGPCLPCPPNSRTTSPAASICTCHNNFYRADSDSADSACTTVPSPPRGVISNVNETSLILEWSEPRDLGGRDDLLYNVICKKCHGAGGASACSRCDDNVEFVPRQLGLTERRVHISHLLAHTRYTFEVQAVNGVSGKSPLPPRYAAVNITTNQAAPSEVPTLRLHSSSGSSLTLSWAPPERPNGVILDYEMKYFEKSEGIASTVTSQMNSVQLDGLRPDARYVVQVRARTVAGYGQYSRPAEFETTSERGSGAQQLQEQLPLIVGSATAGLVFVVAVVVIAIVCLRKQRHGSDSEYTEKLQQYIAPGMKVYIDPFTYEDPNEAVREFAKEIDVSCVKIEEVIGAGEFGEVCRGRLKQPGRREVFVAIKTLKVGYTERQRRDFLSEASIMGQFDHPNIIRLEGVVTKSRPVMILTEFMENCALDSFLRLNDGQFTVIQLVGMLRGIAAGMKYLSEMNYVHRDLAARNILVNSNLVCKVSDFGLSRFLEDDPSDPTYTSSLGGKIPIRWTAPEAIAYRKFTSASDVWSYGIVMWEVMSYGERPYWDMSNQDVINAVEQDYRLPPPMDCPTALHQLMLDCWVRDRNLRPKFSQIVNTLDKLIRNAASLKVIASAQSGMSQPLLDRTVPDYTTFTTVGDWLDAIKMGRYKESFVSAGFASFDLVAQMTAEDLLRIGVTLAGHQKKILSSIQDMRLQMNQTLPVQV
# Protocol: as §1, §2, §3, §4
# [1] = 4hr RT preincubation, read-out: %Remaining activity at 0.5µM NU6300 - 4hr RT preincubation
# [2] = usual format, read-out: %Remaining activity at 0.5µM NU6300 - Usual assay format
smiles,measurement,setting,value
"C=CS(=O)(=O)c1ccc(Nc2nc(OCC3CCCCC3)c3nc[nH]c3n2)cc1 [NU6300, 6-(cyclohexylmethoxy)-N-(4-(vinylsulfonyl)phenyl)-9H-purin-2-amine]",remaining activity at 0.5 µM,ASK1; [1],102%
same,remaining activity at 0.5 µM,ASK1; [2],89%
same,remaining activity at 0.5 µM,EPH-B3; [1],17%
same,remaining activity at 0.5 µM,EPH-B3; [2],12%
